Laboratory results reported in patent US8664160B2, “Fungicidal mixtures” (BASF SE, priority 2005, dated 2014).

Tested on: bentgrass
Assay: Seed treatment of bentgrass: ground coverage by emerged plants
Format: in vivo
Conditions: 20 g a.i./100 kg seed, greenhouse, humid conditions, 7 days after planting, untreated 10.8%
Source text: Seeds of bentgrass were seed-treated with the products and concentrations listed. Triticonazol and Pyraclstrobin were used as 200 g/l FS-formulation. Metalaxyl als a 17.7% LS-formulation. Treated sees were planted at the day of treatment and then kept under humid conditions in the greenhouse. 7 days after plating the ground coverage by emerged plants were estimated in percentage.

`COCC(=O)N(c1c(C)cccc1C)[C@H](C)C(=O)OC` [Metalaxyl-M, metalaxyl-M] was tested, and the “% covered ground” value was 36.3%.
